Data from patent US8920832B2, “Composition for nucleic acid transfection” (Hokkaido System Science Co., Ltd., priority 2006, dated 2014).

Key:
[1] = tested on: HeLa cells; experiment: Cytotoxicity score under microscope after DNA transfection, HeLa cells; assay type: cell-based
Experimental: (§4) HeLa cells were inoculated into a 96-well plate (7,500 cells/100 μL/well), followed by culturing for about 24 hours. DNA (pCMV-SPORT-βgal) was diluted with a DMEM medium, to thereby prepare a DNA-diluted solution having a DNA concentration of 8 μg/mL (for the case of 200 ng/well). […] The thus-obtained solution or Lipofectamine 2000 as a positive control (product of Invitrogen) was diluted with a DMEM medium so that the amount of the reconstituted liposome solution or Lipofectamine 2000 added to cells was “Amount of liposomes added (μL/well)” shown in Table 9 or 10. Immediately after dilution, the DNA-diluted solution (25 μL) was added to and mixed with the liposome-diluted solution (25 μL), and the mixture was allowed to stand still at room temperature for 30 minutes, to thereby form a DNA/liposome complex. The DNA/liposome complex (50 μL) was added to the inoculated HeLa cells (about 70 to about 90% confluent), to thereby initiate transfection. After culturing at 37° C. and 5% CO2 for one hour, a 10% FBS/DMEM medium (100 μL) was added to the culture liquid, followed by culturing at 37° C. and 5% CO2 for about 21 hours.
(§5) Each of the enhancers shown in Table 13 was diluted with a DMEM medium to different concentrations so that the amount of the enhancer finally added to cells was “Enhancer amount (μg/well)” shown in Table 13. […] The thus-diluted liposome solution was added to an equiamount of the above-diluted enhancer, followed by incubation at room temperature for 20 minutes. […] Subsequently, cytotoxicity was evaluated according to the aforementioned scores, and determination of β-gal activity, quantitative determination of protein, and viable cell counting were carried out.

[2] = tested on: HT1080 cells; experiment: Cytotoxicity score under microscope after DNA transfection, HT1080 cells; assay type: cell-based; parameters: scale not given here
From the text: (§1) The procedure of Test Example 5 was repeated, except that HeLa cells were replaced with HT1080 cells.
(§2) The procedure of Test Example 7 was repeated, except that HeLa cells were replaced with HT1080 cells.

[3] = tested on: HT1080 cells; experiment: DNA (pCMV-SPORT-βgal) transfection into HT1080 cells: β-gal activity; assay type: cell-based
From the text: as §1, §2

[4] = tested on: HeLa cells; experiment: DNA (pCMV-SPORT-βgal) transfection into HeLa cells: β-gal activity; conditions: for β-gal activity: HeLa; for effect of enhancer on nucleic-acid-transfecting performance and cytotoxicity, in words: enhancer added to liposome solution of Formulation Example 4, summary of Tables 13 and 14 (HeLa and HT1080)
Experimental: as §4
The culture supernatant was removed, and the cells were washed with PBS(−). Thereafter, determination of β-galactosidase (hereinafter may be abbreviated as “β-gal”) activity, quantitative determination of protein, and viable cell counting were carried out as described below.
After complete removal of PBS through suction, a lysis buffer (30 μL) was added to the cells, and the mixture was stirred and then allowed to stand still at −80° C. for 30 minutes or longer for freezing. After rapid thawing in a water bath at 37° C., the mixture was again allowed to stand still at −80° C. for 30 minutes or longer for freezing, followed by rapid thawing in a water bath at 37° C. Thereafter, centrifugation was carried out (2,000 g×10 minutes), and the resultant supernatant (sample) (10 μL) was added to a 96-well microplate.
Determination of β-gal activity was carried out by means of a β-gal assay kit (product of Invitrogen). […] A 2-Me-containing cleavage buffer was added (50 μL/well) to the sample or each of the standard-diluted solutions (10 μL), and 4 mg/mL aqueous ONPG solution was added (17 μL/well), followed by incubation at 37° C. for 30 minutes. After completion of incubation, a stop buffer was added (120 μL/well) for termination of reaction, and absorbance was measured at 405 nm.
as §5

[5] = tested on: HeLa cells; experiment: Viable cell counting (WST-1), cell survival rate, HeLa cells; assay type: cell-based; conditions: Formulation Example 4 0.38 μL/well
Experimental: (§3) Viable cell counting was carried out by means of a Cell Counting Kit (product of Dojindo Laboratories) based on WST-1 assay. […] Thereafter, absorbance was measured at 450 nm. A cell count vs. A450 standard curve was prepared on the basis of a separately prepared dilution series of different numbers of inoculated cells, and the number of viable cells was estimated by use of the standard curve.

[6] = tested on: HT1080 cells; experiment: Viable cell counting (WST-1), cell survival rate, HT1080 cells; assay type: cell-based; conditions: Formulation Example 4 0.38 μL/well
Experimental: as §3, §1, §2

[7] = Formulation Example 4 0.38 μL/well, enhancer 0.625 μg/well
[8] = Formulation Example 4 0.38 μL/well, enhancer 1.25 μg/well
[9] = Formulation Example 4 0.38 μL/well, enhancer 2.5 μg/well
[10] = Formulation Example 4 0.38 μL/well, enhancer 5 μg/well
[11] = Formulation Example 4 0.38 μL/well, enhancer 10 μg/well
[12] = Formulation Example 4 0.75 μL/well, enhancer 0.625 μg/well
[13] = Formulation Example 4 0.75 μL/well, enhancer 1.25 μg/well
[14] = Formulation Example 4 0.75 μL/well, enhancer 2.5 μg/well
[15] = Formulation Example 4 0.75 μL/well, enhancer 5 μg/well
[16] = Formulation Example 4 0.75 μL/well, enhancer 10 μg/well
[17] = Formulation Example 4 0.38 μL/well, enhancer 20 μg/well
[18] = Formulation Example 4 0.38 μL/well, enhancer 40 μg/well
[19] = Formulation Example 4 0.38 μL/well, enhancer 0.00625 μg/well
[20] = Formulation Example 4 0.38 μL/well, enhancer 0.0125 μg/well
[21] = Formulation Example 4 0.38 μL/well, enhancer 0.025 μg/well
[22] = Formulation Example 4 0.38 μL/well, enhancer 0.05 μg/well
[23] = Formulation Example 4 0.38 μL/well, enhancer 0.1 μg/well
[24] = Formulation Example 4 0.75 μL/well, enhancer 0.00625 μg/well
[25] = Formulation Example 4 0.75 μL/well, enhancer 0.0125 μg/well
[26] = Formulation Example 4 0.75 μL/well, enhancer 0.025 μg/well
[27] = Formulation Example 4 0.75 μL/well, enhancer 0.05 μg/well
[28] = Formulation Example 4 0.75 μL/well, enhancer 0.1 μg/well
[29] = Formulation Example 4 0.38 μL/well, enhancer 6.25 μg/well
[30] = Formulation Example 4 0.38 μL/well, enhancer 12.5 μg/well
[31] = Formulation Example 4 0.38 μL/well, enhancer 25 μg/well
[32] = Formulation Example 4 0.38 μL/well, enhancer 50 μg/well
[33] = Formulation Example 4 0.38 μL/well, enhancer 100 μg/well
[34] = Formulation Example 4 0.75 μL/well, enhancer 6.25 μg/well
[35] = Formulation Example 4 0.75 μL/well, enhancer 12.5 μg/well
[36] = Formulation Example 4 0.75 μL/well, enhancer 25 μg/well
[37] = Formulation Example 4 0.75 μL/well, enhancer 50 μg/well
[38] = Formulation Example 4 0.75 μL/well, enhancer 100 μg/well

Molecule: protamine
- Cytotoxicity score [1, 7]: 1.5
- Cytotoxicity score [1, 8]: 0.5
- Cytotoxicity score [1, 9]: 0.5
- Cytotoxicity score [1, 10]: 0.5
- Cytotoxicity score [1, 11]: 0.5
- Cytotoxicity score [1, 12]: 3.0
- Cytotoxicity score [1, 13]: 1.0
- Cytotoxicity score [1, 14]: 0.5
- Cytotoxicity score [1, 15]: 0.5
- Cytotoxicity score [1, 16]: 0.5
- Cytotoxicity score [2, 7]: 1.5
- Cytotoxicity score [2, 8]: 1.5
- Cytotoxicity score [2, 9]: 1.0
- Cytotoxicity score [2, 10]: 0.5
- Cytotoxicity score [2, 11]: 0.5
- Cytotoxicity score [2, 12]: 2.5
- Cytotoxicity score [2, 13]: 2.0
- Cytotoxicity score [2, 14]: 2.0
- Cytotoxicity score [2, 15]: 2.0
- Cytotoxicity score [2, 16]: 1.0
- β-gal activity [3, 7]: 79.3 mU/well
- β-gal activity [3, 8]: 61.5 mU/well
- β-gal activity [3, 9]: 23.1 mU/well
- β-gal activity [3, 10]: 4.1 mU/well
- β-gal activity [3, 11]: 2.7 mU/well
- β-gal activity [3, 12]: 103.9 mU/well
- β-gal activity [3, 13]: 103.9 mU/well
- β-gal activity [3, 14]: 49.8 mU/well
- β-gal activity [3, 15]: 19.5 mU/well
- β-gal activity [3, 16]: 15.1 mU/well
- β-gal activity [4, 7]: 30.4 mU/well
- β-gal activity [4, 8]: 9.8 mU/well
- β-gal activity [4, 9]: 4.8 mU/well
- β-gal activity [4, 10]: 0.9 mU/well
- β-gal activity [4, 11]: 0.1 mU/well
- β-gal activity [4, 12]: 46.2 mU/well
- β-gal activity [4, 13]: 26.3 mU/well
- β-gal activity [4, 14]: 10.1 mU/well
- β-gal activity [4, 15]: 3.1 mU/well
- β-gal activity [4, 16]: 0.5 mU/well
- effect of enhancer on nucleic-acid-transfecting performance and cytotoxicity, in words [4]: excellent effects

Molecule: CCCC(=O)[O-].[Na+] [sodium butyrate]
- Cytotoxicity score [1, 9]: 1.5
- Cytotoxicity score [1, 10]: 1.0
- Cytotoxicity score [1, 11]: 1.0
- Cytotoxicity score [1, 17]: 1.5
- Cytotoxicity score [1, 18]: 2.0
- Cytotoxicity score [2, 9]: 1.5
- Cytotoxicity score [2, 10]: 1.5
- Cytotoxicity score [2, 11]: 2.0
- Cytotoxicity score [2, 17]: 2.5
- Cytotoxicity score [2, 18]: 3.0
- Cell survival rate ([5]; enhancer 2.5 μg/well): 67%
- Cell survival rate ([5]; enhancer 5 μg/well): 73%
- Cell survival rate ([5]; enhancer 10 μg/well): 65%
- Cell survival rate ([5]; enhancer 20 μg/well): 66%
- Cell survival rate ([5]; enhancer 40 μg/well): 68%
- β-gal activity [3, 9]: 45.0 mU/well
- β-gal activity [3, 10]: 40.2 mU/well
- β-gal activity [3, 11]: 37.3 mU/well
- β-gal activity [3, 17]: 40.3 mU/well
- β-gal activity [3, 18]: 45.6 mU/well
- Cell survival rate ([6]; enhancer 2.5 μg/well): 55%
- Cell survival rate ([6]; enhancer 5 μg/well): 50%
- Cell survival rate ([6]; enhancer 10 μg/well): 53%
- Cell survival rate ([6]; enhancer 20 μg/well): 52%
- Cell survival rate ([6]; enhancer 40 μg/well): 62%
- β-gal activity [4, 9]: 20.4 mU/well
- β-gal activity [4, 10]: 19.8 mU/well
- β-gal activity [4, 11]: 18.7 mU/well
- β-gal activity [4, 17]: 20.9 mU/well
- β-gal activity [4, 18]: 26.7 mU/well
- effect of enhancer on nucleic-acid-transfecting performance and cytotoxicity, in words [4]: excellent effects

Molecule: pronectin
- Cytotoxicity score [1, 19]: 2.0
- Cytotoxicity score [1, 20]: 2.0
- Cytotoxicity score [1, 21]: 2.0
- Cytotoxicity score [1, 22]: 1.5
- Cytotoxicity score [1, 23]: 2.0
- Cytotoxicity score [1, 24]: 4.0
- Cytotoxicity score [1, 25]: 3.5
- Cytotoxicity score [1, 26]: 3.5
- Cytotoxicity score [1, 27]: 3.0
- Cytotoxicity score [1, 28]: 3.0
- Cytotoxicity score [2, 19]: 1.5
- Cytotoxicity score [2, 20]: 1.0
- Cytotoxicity score [2, 21]: 0.5
- Cytotoxicity score [2, 22]: 1.0
- Cytotoxicity score [2, 23]: 1.0
- Cytotoxicity score [2, 24]: 3.0
- Cytotoxicity score [2, 25]: 3.0
- Cytotoxicity score [2, 26]: 2.5
- Cytotoxicity score [2, 27]: 2.5
- Cytotoxicity score [2, 28]: 2.0
- β-gal activity [3, 19]: 87.2 mU/well
- β-gal activity [3, 20]: 70.2 mU/well
- β-gal activity [3, 21]: 52.0 mU/well
- β-gal activity [3, 22]: 3.3 mU/well
- β-gal activity [3, 23]: 0.3 mU/well
- β-gal activity [3, 24]: 102.6 mU/well
- β-gal activity [3, 25]: 107.3 mU/well
- β-gal activity [3, 26]: 92.1 mU/well
- β-gal activity [3, 27]: 16.0 mU/well
- β-gal activity [3, 28]: 4.4 mU/well
- β-gal activity [4, 19]: 23.3 mU/well
- β-gal activity [4, 20]: 19.4 mU/well
- β-gal activity [4, 21]: 15.5 mU/well
- β-gal activity [4, 22]: 3.2 mU/well
- β-gal activity [4, 23]: 0.8 mU/well
- β-gal activity [4, 24]: 28.7 mU/well
- β-gal activity [4, 25]: 25.1 mU/well
- β-gal activity [4, 26]: 16.2 mU/well
- β-gal activity [4, 27]: 6.2 mU/well
- β-gal activity [4, 28]: 2.3 mU/well
- effect of enhancer on nucleic-acid-transfecting performance and cytotoxicity, in words [4]: excellent effects

Molecule: NCCCNCCCCNCCCN [Spermine]
- Cytotoxicity score [1, 29]: 0.0
- Cytotoxicity score [1, 30]: 0.0
- Cytotoxicity score [1, 31]: 0.0
- Cytotoxicity score [1, 32]: 2.0
- Cytotoxicity score [1, 33]: 2.0
- Cytotoxicity score [1, 34]: 4.0
- Cytotoxicity score [1, 35]: 4.0
- Cytotoxicity score [1, 36]: 4.0
- Cytotoxicity score [1, 37]: 4.0
- Cytotoxicity score [1, 38]: 2.0
- Cytotoxicity score [2, 29]: 2.5
- Cytotoxicity score [2, 30]: 2.0
- Cytotoxicity score [2, 31]: 2.5
- Cytotoxicity score [2, 32]: 2.0
- Cytotoxicity score [2, 33]: 1.0
- Cytotoxicity score [2, 34]: 2.0
- Cytotoxicity score [2, 35]: 2.5
- Cytotoxicity score [2, 36]: 3.0
- Cytotoxicity score [2, 37]: 2.0
- Cytotoxicity score [2, 38]: 2.0
- β-gal activity [3, 29]: 31.1 mU/well
- β-gal activity [3, 30]: 29.1 mU/well
- β-gal activity [3, 31]: 34.9 mU/well
- β-gal activity [3, 32]: 21.5 mU/well
- β-gal activity [3, 33]: 6.8 mU/well
- β-gal activity [3, 34]: 76.5 mU/well
- β-gal activity [3, 35]: 64.6 mU/well
- β-gal activity [3, 36]: 72.9 mU/well
- β-gal activity [3, 37]: 10.9 mU/well
- β-gal activity [3, 38]: 1.3 mU/well
- β-gal activity [4, 29]: 0.8 mU/well
- β-gal activity [4, 30]: 1.0 mU/well
- β-gal activity [4, 31]: 0.2 mU/well
- β-gal activity [4, 32]: 0.2 mU/well
- β-gal activity [4, 33]: 0.1 mU/well
- β-gal activity [4, 34]: 1.8 mU/well
- β-gal activity [4, 35]: 0.1 mU/well
- β-gal activity [4, 36]: 0.0 mU/well
- β-gal activity [4, 37]: 0.1 mU/well
- β-gal activity [4, 38]: 0.3 mU/well
